Legend:
MDA-MB-231 cells = assay: Inhibition of cellular supermere uptake by uptake inhibitors; assay type: cell-based, human; conditions: 30 min pre-incubation with inhibitor, labeled supermeres 24 h, 100 nM bafilomycin A
Description: (§1) For inhibitor treatment before supermere uptake, MDA-MB-231 cells were seeded at 20,000 cells per well or Hela cells at 25,000 cells per well on a 35-mm dish (P35G-0.170-14-C, MatTek Corporation) in DMEM culture media. Twenty-four hours later, cells were pre-incubated with the inhibitors in serum free DMEM media for 30 min. The following inhibitors were used: 100 nM bafilomycin A (Sigma, SML1661-. 1ML), 20 μM dynasore (Sigma, D7693-5 MG), 25 μM CK666 (Sigma, SML0006), 5 μM cytochalasin D (Sigma, C2618-200 ul). The Alexa Fluor 647-labeled supermeres (40 μg/ml) were added to the cells for 24 h in the presence of indicated inhibitors. […] Brightfield (30 ms exposure time) and fluorescence (640 Far Red, 10% laser power, 100 ms exposure time) images were taken of 10 or more fields of view, each with several cells per field. Three z-slices 1 μm apart were taken of each fluorescent field and the brightest slice was analyzed.
(§2) Brightfield images were used to identify cell boundaries and an ROI was drawn manually around each cell in each field of view. These region of interests (ROIs) were then opened on the fluorescent image and the mean fluorescence intensity of each ROI (cell) was measured. For each field of view, a background ROI was drawn in a region with no cells, and this background value was subtracted from each cell fluorescence mean in the field of view. […]

Hela cells = assay: as above; assay type: cell-based; conditions: 30 min pre-incubation with inhibitor, labeled supermeres 24 h, 100 nM bafilomycin A
Description: as §1, §2

Compound: CO/C1=C\C(C)=C\[C@@H](C)[C@@H](O)[C@@H](C)C/C(C)=C/C=C/[C@H](OC)[C@@H]([C@@H](C)[C@@H](O)[C@H](C)[C@@]2(O)C[C@@H](O)[C@H](C)[C@@H](C(C)C)O2)OC1=O [bafilomycin A]
- inhibition of supermere internalization (MDA-MB-231 cells): greatest inhibition of supermere internalization
- inhibition of supermere internalization (Hela cells): greatest inhibition of supermere internalization
